Here are results for six compounds from patent publication US11608323B2 (SYNGENTA LIMITED, priority 2013, dated 2023).

What all share (assay type): in vivo
Test [1] deals with ABUTH. The test can be described thus: Pre-emergence herbicidal activity, glasshouse pot test. Particulars: rate 1000 g/Ha, evaluated after 13 days, scale 0-5. On the procedure: (§1) Seeds of a variety of test species were sown in standard soil in pots. After cultivation for one day (pre-emergence) under controlled conditions in a glasshouse (at 24/16° C., day/night; 14 hours light; 65% humidity), the plants were sprayed with an aqueous spray solution derived from the formulation of the technical active ingredient in acetone/water (50:50) solution containing 0.5% Tween 20 (polyoxyethelyene sorbitan monolaurate, CAS RN 9005-64-5). The test plants were then grown in a glasshouse under controlled conditions (at 24/16° C., day/night; 14 hours light; 65% humidity) and watered twice daily. After 13 days, the test was evaluated (5=total damage to plant; 0=no damage to plant).

Test [2] relates to AMARE. Described as above. Particulars: rate 1000 g/Ha, evaluated after 13 days, scale 0-5. On the procedure:
as §1

Test [3] deals with ECHCG. The test is described as above. The note with it: rate 1000 g/Ha, evaluated after 13 days, scale 0-5. On the procedure:
as §1

The test system of test [4] is SETFA. The description is as above. The note with it: rate 1000 g/Ha, evaluated after 13 days, scale 0-5. How it is done: as §1
Test [5] deals with ZEAMX. Described as above. The note with it: rate 1000 g/Ha, evaluated after 13 days, scale 0-5. On the procedure:
as §1

Test [6] concerns ABUTH. The test can be described thus: Post-emergence herbicidal activity, glasshouse pot test. The note with it: Abutilon theophrasti; application post-emergence; rate 1000 g/Ha; evaluated after 13 days. How it is done: (§2) Seeds of a variety of test species were sown in standard soil in pots. After 8 days cultivation (post-emergence) under controlled conditions in a glasshouse (at 24/16° C., day/night; 14 hours light; 65% humidity), the plants were sprayed with an aqueous spray solution derived from the formulation of the technical active ingredient in acetone/water (50:50) solution containing 0.5% Tween 20 (polyoxyethelyene sorbitan monolaurate, CAS RN 9005-64-5). The test plants were then grown in a glasshouse under controlled conditions (at 24/16° C., day/night; 14 hours light; 65% humidity) and watered twice daily. After 13 days, the test was evaluated (5=total damage to plant; 0=no damage to plant).

Test [7] relates to AMARE. The description is as above. The note with it: Amaranthus retroflexus; application post-emergence; rate 1000 g/Ha; evaluated after 13 days. On the procedure: as §2
In test [8] the test system is ECHCG. Described as above. Particulars: Echinochloa crus-galli; application post-emergence; rate 1000 g/Ha; evaluated after 13 days. How it is done: as §2
Test [9] deals with SETFA. The test is described as above. The note with it: Setaria faberi; application post-emergence; rate 1000 g/Ha; evaluated after 13 days. On the procedure:
as §2

The test system of test [10] is ZEAMX. The description is as above. Particulars: Zea mays; application post-emergence; rate 1000 g/Ha; evaluated after 13 days. On the procedure:
as §2

As for `CN1C(=O)N(c2ccc(C(F)(F)F)cn2)C(O)C1O` (stereo not drawn) [Compound A81], the “ABUTH damage score, application pre-emergence” value (shortened to “ABUTH damage score”) in test [1] was found to be 2. The “AMARE damage score, application pre-emergence” value (from here on “AMARE damage score”) in [2] amounted to 3. Also, the “ECHCG damage score, application pre-emergence” value (“ECHCG damage score” for short) in test [3] is listed as 0. Also, the “SETFA damage score, application pre-emergence” value (“SETFA damage score” for short) in [4] came out at 2. Also, in [5], the “ZEAMX damage score, application pre-emergence” value (“ZEAMX damage score” for short) is given as 0. Besides, the “Post-emergence herbicidal activity ABUTH (damage score 0-5)” value (“Post-emergence herbicidal activity ABUTH” for short) in test [6] worked out at 4. Moreover, the “Post-emergence herbicidal activity AMARE (damage score 0-5)” value (shortened to “Post-emergence herbicidal activity AMARE”) in test [7] was 4. In test [8], the “Post-emergence herbicidal activity ECHCG (damage score 0-5)” value (“Post-emergence herbicidal activity ECHCG” below) stood at 2. Besides, the “Post-emergence herbicidal activity SETFA (damage score 0-5)” value (from here on “Post-emergence herbicidal activity SETFA”) in [9] was 2. For the same compound, the “Post-emergence herbicidal activity ZEAMX (damage score 0-5)” value (shortened to “Post-emergence herbicidal activity ZEAMX”) in test [10] is 0.

Consider `CCOC1C(O)N(c2cc(C(F)(F)C(F)(F)F)ccn2)C(=O)N1C` (stereo not drawn) [Compound A82], for which the “ABUTH damage score” value in test [1] is recorded as 5. The “AMARE damage score” value in test [2] was 5. Also, the “ECHCG damage score” value in test [3] stood at 3. The “SETFA damage score” value in test [4] was 3. For the same compound, in test [5], the “ZEAMX damage score” value is listed as 2. Also, the “Post-emergence herbicidal activity ABUTH” value in test [6] is on record as 5. The “Post-emergence herbicidal activity AMARE” value in test [7] came to 5. Besides, the “Post-emergence herbicidal activity ECHCG” value in [8] was 4. The “Post-emergence herbicidal activity SETFA” value in test [9] came to 4. In addition, the “Post-emergence herbicidal activity ZEAMX” value in test [10] amounted to 2.

On to `CCOC1C(O)N(c2ccc(C(F)(F)F)cn2)C(=O)N1C` (stereo not drawn) [Compound A83], for which the “ABUTH damage score” value in test [1] came out at 5. Moreover, the “AMARE damage score” value in [2] worked out at 5. For the same compound, the “ECHCG damage score” value in test [3] is 4. Besides, the “SETFA damage score” value in [4] is given as 4. In addition, the “ZEAMX damage score” value in test [5] is reported as 1. Also, the “Post-emergence herbicidal activity ABUTH” value in [6] stood at 5. The “Post-emergence herbicidal activity AMARE” value in test [7] was found to be 5. Also, the “Post-emergence herbicidal activity ECHCG” value in [8] was 1. Further, the “Post-emergence herbicidal activity SETFA” value in test [9] worked out at 4. In addition, the “Post-emergence herbicidal activity ZEAMX” value in test [10] is listed as 1.

As to `CC1C(O)N(c2cc(C(F)F)ccn2)C(=O)N1C` (stereo not drawn) [Compound A84], in test [1], the “ABUTH damage score” value stood at 5. Also, the “AMARE damage score” value in test [2] was 5. Further, the “ECHCG damage score” value in test [3] turned out to be 5. For the same compound, in [4], the “SETFA damage score” value is reported as 5. Besides, in test [5], the “ZEAMX damage score” value is listed as 3. The “Post-emergence herbicidal activity ABUTH” value in test [6] was found to be 5. The “Post-emergence herbicidal activity AMARE” value in [7] was 5. Also, the “Post-emergence herbicidal activity ECHCG” value in [8] stood at 5. In addition, the “Post-emergence herbicidal activity SETFA” value in test [9] is 5. Also, in test [10], the “Post-emergence herbicidal activity ZEAMX” value stood at 4.

Regarding `CC1C(O)N(c2cc(C(F)(F)Cl)ccn2)C(=O)N1C` (stereo not drawn) [Compound A85], the “ABUTH damage score” value in test [1] worked out at 5. Further, the “AMARE damage score” value in [2] came to 5. Also, the “ECHCG damage score” value in [3] stood at 5. In addition, in [4], the “SETFA damage score” value was 5. In addition, the “ZEAMX damage score” value in test [5] was determined as 3. Also, in test [6], the “Post-emergence herbicidal activity ABUTH” value is given as 5. In [7], the “Post-emergence herbicidal activity AMARE” value is 5. Further, the “Post-emergence herbicidal activity ECHCG” value in [8] amounted to 5. The “Post-emergence herbicidal activity SETFA” value in test [9] was determined as 5. Also, the “Post-emergence herbicidal activity ZEAMX” value in test [10] was 4.

For `CC1C(O)N(c2cc(C(F)F)c(Cl)cn2)C(=O)N1C` (stereo not drawn) [Compound A86], the “ABUTH damage score” value in test [1] is 5. Further, the “AMARE damage score” value in test [2] is reported as 5. For the same compound, the “ECHCG damage score” value in [3] is 5. Besides, in [4], the “SETFA damage score” value is on record as 5. The “ZEAMX damage score” value in test [5] is 3. For the same compound, the “Post-emergence herbicidal activity ABUTH” value in test [6] worked out at 5. In addition, the “Post-emergence herbicidal activity AMARE” value in test [7] is on record as 5. The “Post-emergence herbicidal activity ECHCG” value in test [8] was 5. Further, the “Post-emergence herbicidal activity SETFA” value in [9] is 5. Moreover, in [10], the “Post-emergence herbicidal activity ZEAMX” value turned out to be 2.
